In series [1] the test system is endogenous tTA operator (pLVX-TRE3G.eGFP reporter). As to the kind of experiment: Reverse genetics of tTA variants with pLVX-TRE3G.eGFP reporter in HEK293A cells. In kind it is cell-based, human. To be noted: transient co-transfection with eGFP reporter, presence or absence of 20 μM dox. The text has this:
FIGS. 22A-22F. FIG. 22A. Serial-passaging schemes for evolving functional tTA variants that gain dox resistance in human cells. Two approaches to selection pressure were used, either with increasing dox concentrations (Trial 1) or a constant, moderate dox concentration (Trial 2). FIG. 22B. tTA-induced GFP expression in the presence of dox after each round of evolution for Trial 1. Phenotyping cells were infected with passaged viral populations and analyzed by flow cytometry. The percentage of infected GFP-positive cells at each passage in the presence of dox was normalized to the percentage of infected GFP-positive cells at each passage in the absence of dox. N.D.=not detectable owing to low viral titer. FIG. 22C. Non-reference allele frequencies for all mutations observed at >1% frequency over the course of the directed evolution experiment for Trial 1 (see FIG. 28 for Trial 2). […]
HEK-293A cells were seeded in a 12-well plate at ˜4×10^5 cells/well. […] 48 h post-transfection, cells were analyzed by flow cytometry (see above for sample preparation). Promoter activity was calculated based on the mean fluorescence intensity of GFP fluorescence, backgated for only mCherry-expressing cells.
HEK-293A cells were seeded in a 12-well plate (˜400,000 cells/well). […] 48 h post-transfection, samples were stained with 0.2 μg/mL DAPI, and analyzed on a BD LSR II analyzer.

The next series deals with HEK293A cells. As to the kind of experiment: Resazurin assay to assess acute toxicity of common tissue culture antibiotics. In kind it is cell-based, human. The settings on record: two-day treatment; for acute toxicity (cell viability by resazurin fluorescence): various concentrations. As to the method:
FIGS. 46A-46D. Resazurin assay to assess acute toxicity of common tissue culture antibiotics. HEK293A cells were treated for two days with either G418 (FIG. 46A), puromycin (FIG. 46B), blasticidin (FIG. 46C), or hygromycin (FIG. 46D), and cell viability was analyzed by resazurin fluorescence.
A 96-well plate was seeded with HEK293A cells (˜15,000) and treated with either puromycin HCl (Corning), Hygromycin B (Thermo Fisher), Blasticidin S HCl (Thermo Fisher), or G418 (Enzo). Two days later, 10 μL of 0.1 mg/mL resazurin (MilliporeSigma) was added and incubated for 1.5 h. Media was transferred to a fresh 96-well plate and fluorescence was analyzed on a Bio-Tek Synergy H1 Hybrid Microplate Reader.

For the next series, the system named is RFP.ΔAdPol.adenovirus. Description: Time course of antibiotic inhibition of adenoviral replication. The settings on record: treatment initiated 24 h post-infection. In kind it is cell-based, Adenovirus type 5. The text has this:
FIGS. 47A-47B. Time-course of antibiotic-mediated inhibition of adenoviral infection. HEK293A cells expressing wild-type AdPol were infected with RFP.ΔAdPol.adenovirus and treated with either a) puromycin, or b) blasticidin at various time points post-infection (h.p.i.=hours post-infection). After 2 days, the infections were harvested and titered by flow cytometry. Titers are given in infectious units per milliliter (IU/mL), defined as the volume of adenoviral supernatant required to induce fluorescence in a cell as analyzed by flow cytometry. Dashed line represents the limit of detection (L.O.D) of the assay. Titers below this limit are inaccurate due to the percentage of infected cells being below the 1% error threshold of flow cytometry.
RFP.ΔAdPol.adenovirus (TABLE 16) was used to infect a 24-well plate of wild-type AdPol cells (150,000 cells/well) (TABLE 17) at MOI=1, and either blasticidin or puromycin was added at various time points following the infection. Viral supernatants were harvested ˜48 h post-infection, and titered by flow cytometry as described above.

The subject of series [2] is ΔAdPol.adenovirus encoding either tTA or RFP. As to the kind of experiment: tTA-induced resistance to antibiotic inhibition of adenoviral replication. The settings on record: treatment 10 h post-infection. The class given is cell-based, Adenovirus type 5. As to the method: FIGS. 48A-48D. tTA-induced resistance to antibiotic mediated inhibition of adenoviral infection. Either wild-type AdPol cells, TRE3G.puroR cells, or TRE3G.blastR cells were infected with ΔAdPol.adenovirus encoding either tTA (+tTA) or RFP (−tTA). Ten hours post-infection, wild-type AdPol cells were treated with either puromycin (FIG. 48A) or (FIG. 48B) blasticidin, TRE3G.puroR cells were treated with puromycin (FIG. 48C), and TRE3G.blastR cells were treated with blasticidin (FIG. 48D). After 2, days, the infections were harvested and titered by flow cytometry. Titers are given in infectious units per milliliter (IU/mL), defined as the volume of adenoviral supernatant required to induce fluorescence in a cell as analyzed by flow cytometry. Dashed line represents the limit of detection (L.O.D) of the assay. Titers below this limit are inaccurate owing to the percentage of infected cells being below the 1% error threshold of flow cytometry.
Either RFP.ΔAdPol.adenovirus, or tTA.mCherry.ΔAdPol.adenovirus (TABLE 16) was used to infect a 24-well plate of either wild-type AdPol cells, TRE3G.puroR cells, or TRE3G.blastR cells (150,000 cells/well) (TABLE 17) at MOI=1, and either puromycin or blasticidin was added 10 h post-infection. Viral supernatants were harvested ˜48 h post-infection, and titered by flow cytometry as described above.

For series [3], the system named is AdGLΔPol adenoviral genome. Description: Mutagenesis rate determination by serial passaging and deep sequencing of a 6.5 kb fragment. In kind it is cell-based, Adenovirus type 5. The protocol: The mutagenic potential of AdPol variants was evaluated following a previously reported protocol (Uil T. G. et al., Nucleic Acids Res. 39, e30 (2011)). Briefly, a polymerase-deleted Ad5, AdGLΔPol, was subjected to 10 serial passages on cultures of 911 cells (Fallaux F. J. et al., Hum. Gene Ther. 7, 215-222 (1996)) expressing EP-Pol in order to accumulate mutations. After 10 serial passages, 911 cells expressing wild-type AdPol were infected in a 6-well plate at ˜50 plaque-forming units/well in order to amplify pools of 50 viral clones for sequencing. Using pools of 50 or fewer clonal viruses ensured that mutations present in only one clone will be present at a frequency above the threshold of detection. From each 50-clone viral pool, a 6.5-kb fragment was amplified and prepared for deep sequencing. Libraries were subjected to 32 cycles of single-read sequencing by an Illumina Genome Analyzer II.
The mutagenic potential of EP-Pol was evaluated following a previously reported protocol (Uil T. G. et al., Nucleic Acids Res., 39(5): e30 (2011)). Briefly, a polymerase-deleted Ad5, AdGLΔAdPol, was subjected to 10 serial passages on cultures of 911 cells expressing EP-Pol in order to accumulate mutations. After 10 serial passages, 911 cells expressing wild-type AdPol were infected in a 6-well plate at ˜50 plaque-forming units/well in order to amplify pools of 50 viral clones for sequencing. Using pools of 50 or fewer clonal viruses ensures that mutations present in only one clone will be present at a frequency above the threshold of detection. From each 50-clone viral pool, a 6.5 kb fragment was amplified and prepared for deep sequencing. Libraries were subjected to 32 cycles of single-read sequencing by an Illumina Genome Analyzer II (GA-II).

Marks after values point to notes of the source that are not given here.

For “E147K: tTA variant with single amino acid substitution E147K, fixed in Trial 1”, the “dox-resistance of tTA variant” value in series [1] was “confer dox-resistance”.
Consider “H100Y: tTA variant with single amino acid substitution H100Y, fixed in Trial 2”, for which the “dox-resistance of tTA variant” value in series [1] is given as “confer dox-resistance”.
On to `CN[C@@H]1[C@@H](O)[C@@H](O[C@@H]2[C@@H](O)[C@H](O[C@H]3O[C@H]([C@@H](C)O)[C@@H](O)[C@H](O)[C@H]3N)[C@@H](N)C[C@H]2N)OC[C@]1(C)O` [G418], for which the “acute toxicity (cell viability by resazurin fluorescence)” value in the series on HEK293A cells is on record as “only mildly toxic at the highest concentrations”.
On to `COc1ccc(C[C@H](N)C(=O)N[C@H]2[C@@H](O)[C@H](n3cnc4c(N(C)C)ncnc43)O[C@@H]2CO)cc1` [puromycin], for which, in the series with HEK293A cells, the “dynamic range of inhibitory concentrations” value is on record as “less than two orders of magnitude” and the “acute toxicity (cell viability by resazurin fluorescence)” value is listed as “completely toxic”. In addition, the “inhibition of adenoviral replication” value in the series with RFP.ΔAdPol.adenovirus is “Neither puromycin nor blasticidin were able to inhibit adenoviral replication”. For the same molecule, in series [2] (TRE3G.puroR cell line), the “effect on ΔAdPol.adenovirus replication” value was “equally toxic to both tTA-expressing and RFP-expressing ΔAdPol.adenovirus”. Besides, in series [2] (wild-type AdPol cell line), the “effect on ΔAdPol.adenovirus replication” value was “inhibited both RFP-expressing and tTA-expressing ΔAdPol.adenovirus replication”.

B1: EP-Pol (protein)
chain: MALAQAHRARRLHAEAPDSGDQPPRRRVRQQPTRAAPAPARARRRRAPAPSPGGSGAPPTSGGSPASPLLDASSKDTPAAHRPPRGTVVAPRGCGLLQAIDAATNQPLEIRYHLDLARALTRLCEVNLQELPPDLTPRELQTMDSSHLRDVVIKLRPPRADIWTLGSRGVVVRSTVTPLEQPDGQGQAAEVEDHQPNPPGEGLKFPLCFLVRGRQVNLVQDVQPVHRCQYCARFYKSQHECSARRRDFYFHHINSHSSNWWREIQFFPIGSHPRTERLFVTYDVETYTWMGAFGKQLVPFMLVMKFGGDEPLVTAARDLAANLGWDRWEQDPLTFYCITPEKMAIGRQFRTFRDHLQMLMARDLWSSFVASNPHLADWALSEHGLSSPEELTYEELKKLPSIKGIPRFLELYIVGHNINGYDEIVLAAQVINNRSEVPGPFRITRNFMPRAGKILFNDVTFALPNPRSKKRTDFLLWEQGGCDDTDFKYQYLKVMVRDTFALTHTSLRKAAQAYALPVEKGCCAYQAVNQFYMLGSYRSEADGFPIQEYWKDREEFVLNRELWKKKGQDKYDIIKETLDYCALDVQVTAELVNKLRDSYASFVRDAVGLTDASFNVFQRPTISSNSHAIFRQIVFRAEQPARSNLGPDLLAPSHELYDYVRASIRGGRCYPTYLGILREPLYVYDICGMYASALTHPMPWGPPLNPYERALAARAWQQALDLQGCKIDYFDARLLPGVFTVDADPPDETQLDPLPPFCSRKGGRLCWTNERLRGEVATSVDLVTLHNRGWRVHLVPDERTTVFPEWRCVAREYVQLNIAAKERADRAKNQTLRSIAKLLSNALYGSFATKLDNKKIVFSDQMDAATLKGITAGQVNIKSSSFLETDNLSAEVMPAFQREYSPQQLALADSDAEESEDERAPTPFYSPPSGTPGHVAYTYKPITFLDAEEGDMCLHTLERVDPLVDNDRYPSHLASFVLAWTRAFVSEWSEFLYEEDRGTPLEDRPLKSVYGDTDSLFVTERGHRLMETRGKKRIKKHGGNLVFDPERPELTWLVECETVCGACGADAYSPESVFLAPKLYALKSLHCPSCGASSKGKLRAKGHAAEGLDYDTMVKCYLADAQGEDRQRFSTSRTSLKRTLASAQPGAHPFTVTQTTLTRTLRPWKDMTLARLDEHRLLPYSESRPNPRNEEICWIEMPYPYDVPDYA
modifications: HA tag
Turning to B1, the “Substitution load per million bp” value in series [3] (6020 bp analyzed, 27.3 clones estimated) is 365 per million bp. Besides, the “mutations introduced into the genome” value in series [3] (adenoviral genome ~35 kb) was ~1.3 mutations per infected cell pe. For the same molecule, the “Substitutions per Ad genome per viral generation” value in series [3] (assuming a genome size of 36 kb, 27.3 genomes, 10 passages = 10 generations) was 1.31**. The “mutation rate relative to the error rate of wild-type AdPol evaluated by the same method” value in series [3] (comparison with Uil et al. 2011) is ~370 fold. The mutation rate result in series [3] (next-generation sequencing of a 6.5 kb region in a small pool of passaged clones) is “approximately 3.7×10^−5 per base per cell infection cycle”.

Source of the values: US11414677B2, “Methods and compositions for performing continuous directed evolution” (Massachusetts Institute of Technology, priority 2017, dated 2022).
